Test [1] relates to MKN-28 cells. Nature of the test: Cell proliferation assay, MKN-28. In kind it is cell-based, Human. The note with it: CM 7, various concentrations; 4 days; serum-free medium; cell count; means of six determinations. The procedure:
Human gastric cancer cell line MKN-45 cells were from the Chinese Academy of Medical Sciences, Beijing, China. Human gastric cancer cell line MKN-28 cells, the human glioma cell line U87 cells, and MDCK cells were obtained from the American Type Culture Collection (ATCC). The MKN-45 and MKN-28 cells were grown under a humidified atmosphere of 5% CO2 at 37 °C in RPMI 1640 medium (Biological Industries, Israel), supplemented with 10% fetal bovine serum (FBS, Biological Industries, Israel), 2 mmol/L L-glutamine (Gibco, Life Technologies, Grand Island, NY, USA), 100 U/mL penicillin, and 100 μg/mL streptomycin (Invitrogen, Carlsbad, CA, USA). MDCK and U87 cells were cultured under a humidified atmosphere of 5% CO2 at 37 °C in Dulbecco’s modified Eagle’s medium (DMEM) (Gibco, Life Technologies, Grand Island, NY, USA), supplemented with 10% FBS, 2 mmol/L L-glutamine (Gibco, Life Technologies, Grand Island, NY, USA), 100 U/mL penicillin, and 100 μg/mL streptomycin (Invitrogen, Carlsbad, CA, USA).
As described in the literature, MKN-45, MKN-28, and U87 cells were seeded into 48-well culture plates (6500 cells/well) and cultured overnight. […] After 4 days, the cells were trypsinized and counted by a cell counter. […]

In test [2] the test system is MKN-45 cells. Nature of the test: Transwell invasion assay. In kind it is cell-based, Human. The note with it: Matrigel-coated Transwell, 8 μm pores; 48 h; n = 3; dose-dependent. Here is the method: For the invasion assay, a chamber was placed into a 24-well culture plate with 600 μL RPMI 1640 medium containing 10% FBS. MKN-45 cells were resuspended in serum-free medium and cultured on the upper compartment of the Transwell chamber (1.0 × 10^5 cells/well; pore size, 8 μm; Merck Millipore, Germany) coated with Matrigel. CM 7 and Crizotinib were added to the top side of the membrane at the indicated concentrations. After 48 h, the noninvaded cells were removed, and the invaded cells were fixed with ethanol and stained with crystal violet solution (0.1%) for 15 min at room temperature. The experiment was performed in triplicate, and images were obtained using an Olympus IX53 microscope (Olympus, Japan).

Test [3] has as its system MKN-45 cells. The experiment in a line: Wound healing (migration) assay. In kind it is cell-based, Human. Conditions: 1% FBS, 48 h, n = 3, dose-dependent. Here is the method:
For the wound healing assay, MKN-45 cells (4 × 10^4 cells/well) were seeded in a 48-well culture plate. When the cells were almost completely fused, a sterile 200 μL pipette tip was used to generate a straight wound line across the monolayer cell. Then, the cells were washed with PBS and incubated in RPMI 1640 medium containing 1% FBS with CM 7 or Crizotinib at the indicated concentration for 48 h. The experiment was performed in triplicate, and the cell migration toward the gap was captured using the microscope.

In test [4] the test system is c-Met and its downstream signaling molecules in U87 cells. Nature of the test: Western blot of c-Met signaling, U87 (HGF-induced). Type of test: cell-based, human. The note with it: 24 h. The procedure: (§1) Western blot analysis was performed using an extraction buffer as described. MKN-45, MKN-28 and U87 cells were cultured in serum-free medium overnight, then treated with the indicated dose of peptide CM 7 for 24 h at 37 °C after stimulated without or with HGF for 15 min. Next, total cell lysates were separated by 12% SDS-polyacrylamide gel (SDS-PAGE) and transferred to polyvinylidene difluoride (PVDF) membranes. The PVDF membranes were probed with following primary antibodies: anti-phospho-Met (Tyr1234/1235, (Cell Signaling Technology, Beverly, MA, USA), anti-Met (Affinity, USA), anti-phospho-AKT (Ser473, (Affinity, USA)), anti-AKT (Affinity, USA), anti-phospho-Erk1/2 (Thr202/Tyr204, (Affinity, USA)), anti-Erk1/2 (Affinity, USA), anti-E-cadherin (WanleiBio, Shengyang, China), and anti-GAPDH (Multi Sciences, Hangzhou, China). Then, horseradish-peroxidase-conjugated anti-rabbit IgG was used as a second antibody. The immunoreactive proteins were exposed using an enhanced chemiluminescence detection reagent (WanleiBio, Shengyang, China). After sacrificing the mice and isolating the tumor tissue, Western blot was performed as previously described.
(Immunoblotting shows a protein as a band on a membrane.)

Test [5] has as its system c-Met and its downstream signaling molecules in MKN-28 cells. Nature of the test: Western blot of c-Met signaling, MKN-28. Type of test: cell-based, Human. Here is the method: as §1
The test system of test [6] is MKN-45 tumor xenografts. Nature of the test: MKN-45 xenograft antitumor activity in nude mice. Type of test: in vivo, Human. Here is the method:
Four-to-five-week-old female Balb/c nude mice, housed in specific pathogen-free conditions, were used to evaluate antitumor activity in vivo. All animal studies were performed according to the institutional ethical guidelines for animal care.
MKN-45 cells at a density of 5 × 10^6 in 200 μL were injected subcutaneously into the flank of the mice. CM 7 (5, 10, or 20 mg/kg) was injected subcutaneously for each group twice a day for four weeks. As a positive control, Crizotinib (50 mg/kg) was given to tumor-bearing mice by gavage once a day for a total of 28 days. The tumor volume was measured with calipers in two dimensions: tumor volume = 1/2 × a × b^2, where a is the length of the tumor, and b is the width of the tumor. All of the mice were sacrificed on day 42, and the tumor tissue was isolated and weighed.
(In general: In xenograft studies the graft and the host belong to different species.)

In test [7] the test system is human c-Met protein. The experiment in a line: Affinity to c-Met protein (as stated in abstract and discussion). Type of test: binding. Conditions: in words only; Kd not given.

“Also recorded” adds a separate entry of the source.

In the case of “DQIIANN [CM 7, Novel peptide DQIIANN targeting the tyrosine kinase receptor c-Met]”, in test [1], the “Inhibition of cell proliferation” value is recorded as “no effect”. For the same substance, in test [2], the “Inhibition of cell invasion” value is “moderate regulation; also recorded: significantly inhibit cell invasion”. The “Inhibition of cell migration” value in test [3] is “moderate regulation; also recorded: significantly inhibit cell invasion (Figure 7A,C) and cell migration”. In addition, the “Expression of E-cadherin” value in test [4] is “increase the expression of E-cadherin”; in test [5], “no effect”. Further, the “Phosphorylation of c-Met, Akt and Erk” value is “effectively inhibit” in test [4] (HGF 15 min, dose-dependent) and “not MKN-28 cells; also recorded: no effect” in test [5]. Also, in test [6] (20 mg/kg s.c. twice a day, 28 days, n = 5–6), the “Inhibition of tumor growth versus vehicle (PBS)” value is “significantly inhibited tumor growth”. Further, in test [6] (CM 7 20 mg/kg s.c. twice a day vs Crizotinib 50 mg/kg by gavage daily, 28 days), the “Inhibition of tumor growth relative to Crizotinib” value was “weaker than the positive control group (Crizotinib)”. For the same substance, in test [6] (xenograft mouse model using MKN-45 cells, dose not printed with the value (5, 10, 20 mg/kg s.c. twice a day tested)), the “Growth inhibition rate of tumor masses” value worked out at 62%. In addition, the “Affinity to c-Met” value in test [7] is “specific binding to c-Met with high affinity”.

For the origin of these results see article PMC7038139, “Novel Peptide CM 7 Targeted c-Met with Antitumor Activity” (Molecules, 2020).
